{"source": "PubChem BioAssay AID328", "about": "(DTP/NCI, 2004)", "system": "BDF1 mice, P388 leukemia ip, median survival T/C", "test": "NCI In Vivo Anticancer Drug Screen. Data for tumor model P388 Leukemia (intraperitoneal) in B6D2F1 (BDF1) mice", "settings": "endpoint: median survival time, higher = longer survival", "how_it_was_run": "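Transplantable tumour in mice; compound vs vehicle dosing; survival scored; ratio of treated to control reported.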", "key": {"[1]": {"settings": "dose: 50.0 mg/kg/injection, schedule: Q01DX001 (ip), vehicle: saline"}, "[2]": {"settings": "dose: 50.0 mg/kg/injection, schedule: Q01DX009 (ip), vehicle: saline with Tween-80"}, "[3]": {"settings": "dose: 100.0 mg/kg/injection, schedule: Q01DX009 (ip), vehicle: saline with Tween-80"}, "[4]": {"settings": "dose: 200.0 mg/kg/injection, schedule: Q01DX009 (ip), vehicle: saline with Tween-80"}, "[5]": {"settings": "dose: 100.0 mg/kg/injection, schedule: Q04DX003 (ip), vehicle: Klucel (hydroxypropylcellulose) (HPC)"}, "[6]": {"settings": "dose: 200.0 mg/kg/injection, schedule: Q04DX003 (ip), vehicle: Klucel (hydroxypropylcellulose) (HPC)"}, "[7]": {"settings": "dose: 400.0 mg/kg/injection, schedule: Q04DX003 (ip), vehicle: Klucel (hydroxypropylcellulose) (HPC)"}, "[8]": {"settings": "dose: 400.0 mg/kg/injection, schedule: Q04DX003 (ip), vehicle: saline"}}, "note": "Several values for one entry are separate records, joined by “and”; a condition that tells them apart may be missing. Identical values can stand only once. Inconclusive results and toxic doses are left out."}
{"smiles": "CC(C)(C)/C([O-])=N/[N+](C)(C)C", "values": [{"measurement": "T/C", "setting": "[1]", "value": "109 % of control"}, {"measurement": "T/C", "setting": "dose: 100.0 mg/kg/injection, schedule: Q01DX001 (ip), vehicle: saline", "value": "104 % of control"}, {"measurement": "T/C", "setting": "dose: 200.0 mg/kg/injection, schedule: Q01DX001 (ip), vehicle: saline", "value": "104 % of control"}]}
{"smiles": "C=Cn1ccnc1C(O)(c1ccccc1)c1ccc(C(C)(C)C)cc1", "note": "(stereo not drawn)", "values": [{"measurement": "T/C", "setting": "[2]", "value": "93 % of control"}, {"measurement": "T/C", "setting": "[3]", "value": "90 % of control"}, {"measurement": "T/C", "setting": "[4]", "value": "93 % of control"}]}
{"smiles": "CCCCOC(=O)C(N)Cc1ccc(OC)c(N(CCCl)CCCl)c1", "note": "(stereo not drawn)", "values": [{"measurement": "T/C", "setting": "dose: 3.0 mg/kg/injection, schedule: Q04DX003 (ip), vehicle: saline", "value": "250 % of control"}, {"measurement": "T/C", "setting": "dose: 6.0 mg/kg/injection, schedule: Q04DX003 (ip), vehicle: saline", "value": "108 % of control"}]}
{"smiles": "CCOC(=O)Cn1nc(-c2ccc([N+](=O)[O-])o2)oc1=O", "values": [{"measurement": "T/C", "setting": "[2]", "value": "97 % of control"}, {"measurement": "T/C", "setting": "[3]", "value": "95 % of control"}, {"measurement": "T/C", "setting": "[4]", "value": "103 % of control"}]}
{"smiles": "COc1ccc(C(=O)/C=C/c2ccc(OCc3ccccc3)cc2)cc1", "values": [{"measurement": "T/C", "setting": "[2]", "value": "100 % of control"}, {"measurement": "T/C", "setting": "[3]", "value": "91 % of control"}, {"measurement": "T/C", "setting": "[4]", "value": "96 % of control"}]}
{"smiles": "Nc1ccccc1C(=O)OCCc1ccccc1", "values": [{"measurement": "T/C", "setting": "dose: 100.0 mg/kg/injection, schedule: Q01DX009 (ip), vehicle: Klucel (hydroxypropylcellulose) (HPC)", "value": "100 % of control"}, {"measurement": "T/C", "setting": "[5]", "value": "95 % of control"}, {"measurement": "T/C", "setting": "[6]", "value": "91 % of control"}, {"measurement": "T/C", "setting": "dose: 266.0 mg/kg/injection, schedule: Q01DX009 (ip), vehicle: Klucel (hydroxypropylcellulose) (HPC)", "value": "94 % of control"}, {"measurement": "T/C", "setting": "dose: 400.0 mg/kg/injection, schedule: Q01DX009 (ip), vehicle: Klucel (hydroxypropylcellulose) (HPC)", "value": "110 % of control"}, {"measurement": "T/C", "setting": "[7]", "value": "95 % of control"}, {"measurement": "T/C", "setting": "dose: 600.0 mg/kg/injection, schedule: Q01DX009 (ip), vehicle: Klucel (hydroxypropylcellulose) (HPC)", "value": "100 % of control"}]}
{"smiles": "Cn1c(=O)n(C)c2ccccc21", "values": [{"measurement": "T/C", "setting": "dose: 15.0 mg/kg/injection, schedule: Q01DX001 (ip), vehicle: saline", "value": "90 % of control"}, {"measurement": "T/C", "setting": "dose: 25.0 mg/kg/injection, schedule: Q01DX001 (ip), vehicle: saline with Tween-80", "value": "90 % of control and 100 % of control"}, {"measurement": "T/C", "setting": "dose: 25.0 mg/kg/injection, schedule: Q01DX001 (ip), vehicle: saline", "value": "90 % of control"}, {"measurement": "T/C", "setting": "dose: 35.0 mg/kg/injection, schedule: Q01DX001 (ip), vehicle: saline", "value": "100 % of control"}, {"measurement": "T/C", "setting": "dose: 50.0 mg/kg/injection, schedule: Q01DX001 (ip), vehicle: saline with Tween-80", "value": "104 % of control"}, {"measurement": "T/C", "setting": "[1]", "value": "100 % of control"}, {"measurement": "T/C", "setting": "dose: 75.0 mg/kg/injection, schedule: Q01DX001 (ip), vehicle: saline", "value": "90 % of control"}, {"measurement": "T/C", "setting": "dose: 100.0 mg/kg/injection, schedule: Q01DX001 (ip), vehicle: saline with Tween-80", "value": "90 % of control and 95 % of control"}, {"measurement": "T/C", "setting": "[5]", "value": "95 % of control"}, {"measurement": "T/C", "setting": "[6]", "value": "91 % of control"}, {"measurement": "T/C", "setting": "[7]", "value": "91 % of control"}]}
{"smiles": "CN(C)c1ccc(N=Cc2cc[n+](C)cc2)cc1", "values": [{"measurement": "T/C", "setting": "dose: 12.5 mg/kg/injection, schedule: Q01DX009 (ip), vehicle: saline", "value": "104 % of control"}, {"measurement": "T/C", "setting": "dose: 16.5 mg/kg/injection, schedule: Q01DX009 (ip), vehicle: saline", "value": "116 % of control and 122 % of control"}, {"measurement": "T/C", "setting": "dose: 25.0 mg/kg/injection, schedule: Q01DX009 (ip), vehicle: saline", "value": "101 % of control"}, {"measurement": "T/C", "setting": "dose: 37.5 mg/kg/injection, schedule: Q01DX009 (ip), vehicle: saline", "value": "109 % of control and 118 % of control"}, {"measurement": "T/C", "setting": "dose: 50.0 mg/kg/injection, schedule: Q01DX009 (ip), vehicle: saline", "value": "118 % of control"}]}
{"smiles": "Cc1cc(NCCCCCCNc2cc(C)nc3ccc(N)cc23)c2cc(N)ccc2n1", "values": [{"measurement": "T/C", "setting": "dose: 37.5 mg/kg/injection, schedule: Q04DX003 (ip), vehicle: saline", "value": "163 % of control"}, {"measurement": "T/C", "setting": "dose: 75.0 mg/kg/injection, schedule: Q04DX003 (ip), vehicle: saline", "value": "159 % of control"}, {"measurement": "T/C", "setting": "dose: 150.0 mg/kg/injection, schedule: Q04DX003 (ip), vehicle: saline", "value": "218 % of control"}, {"measurement": "T/C", "setting": "dose: 198.0 mg/kg/injection, schedule: Q04DX003 (ip), vehicle: Klucel (hydroxypropylcellulose) (HPC)", "value": "213 % of control"}, {"measurement": "T/C", "setting": "dose: 200.0 mg/kg/injection, schedule: Q04DX003 (ip), vehicle: saline", "value": "210 % of control"}, {"measurement": "T/C", "setting": "dose: 300.0 mg/kg/injection, schedule: Q04DX003 (ip), vehicle: saline", "value": "230 % of control and 213 % of control"}, {"measurement": "T/C", "setting": "[7]", "value": "254 % of control"}, {"measurement": "T/C", "setting": "[8]", "value": "250 % of control"}]}
{"smiles": "COc1ccc(N2CSC(=S)N(c3ccc(OC)cc3)C2)cc1", "values": [{"measurement": "T/C", "setting": "dose: 100.0 mg/kg/injection, schedule: Q01DX001 (ip), vehicle: Klucel (hydroxypropylcellulose) (HPC)", "value": "100 % of control"}, {"measurement": "T/C", "setting": "[5]", "value": "95 % of control"}, {"measurement": "T/C", "setting": "dose: 100.0 mg/kg/injection, schedule: Q04DX003 (ip), vehicle: saline", "value": "87 % of control"}, {"measurement": "T/C", "setting": "dose: 200.0 mg/kg/injection, schedule: Q01DX001 (ip), vehicle: Klucel (hydroxypropylcellulose) (HPC)", "value": "87 % of control"}, {"measurement": "T/C", "setting": "[6]", "value": "91 % of control"}, {"measurement": "T/C", "setting": "dose: 400.0 mg/kg/injection, schedule: Q01DX001 (ip), vehicle: Klucel (hydroxypropylcellulose) (HPC)", "value": "95 % of control"}, {"measurement": "T/C", "setting": "[7]", "value": "104 % of control"}, {"measurement": "T/C", "setting": "[8]", "value": "100 % of control"}]}
